From PubChem BioAssay (NCI)
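Dose response: 5 concentrations. Exposure: 48 h. Format: 96-well plates. Endpoint: linear interpolation; highest concentration if not reached. TGI: concentration producing complete growth inhibition.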 Where a SMILES comes first, the peptide text is derived from it. The star is where a group is joined. Boc = CC(C)(C)OC(=O)*; OBn = c1ccc(CO*)cc1

How the values were obtained:
Experiment in all cases: NCI anticancer screen, dose series, 48 h
786-0 renal = tested on: 786-0 renal
A498 renal = tested on: A498 renal
A549 NSCLC = tested on: A549 NSCLC
ACHN renal = tested on: ACHN renal
BT-549 breast = tested on: BT-549 breast
CAKI-1 renal = tested on: CAKI-1 renal
CCRF-CEM leukemia = tested on: CCRF-CEM leukemia
COLO 205 colon = tested on: COLO 205 colon
DU-145 prostate = tested on: DU-145 prostate
EKVX NSCLC = tested on: EKVX NSCLC
HCC-2998 colon = tested on: HCC-2998 colon
HCT-116 colon = tested on: HCT-116 colon
HL-60(TB) leukemia = tested on: HL-60(TB) leukemia
HOP-62 NSCLC = tested on: HOP-62 NSCLC
HOP-92 NSCLC = tested on: HOP-92 NSCLC
HS 578T breast = tested on: HS 578T breast
HT29 colon = tested on: HT29 colon
IGROV1 ovarian = tested on: IGROV1 ovarian
KM12 colon = tested on: KM12 colon
LOX IMVI melanoma = tested on: LOX IMVI melanoma
M14 melanoma = tested on: M14 melanoma
MALME-3M melanoma = tested on: MALME-3M melanoma
MDA-MB-231 breast = tested on: MDA-MB-231 breast
MDA-MB-435 = tested on: MDA-MB-435
MDA-N = tested on: MDA-N
MOLT-4 leukemia = tested on: MOLT-4 leukemia
NCI-H23 lung = tested on: NCI-H23 lung
NCI-H460 lung = tested on: NCI-H460 lung
NCI-H522 lung = tested on: NCI-H522 lung
OVCAR-3 ovarian = tested on: OVCAR-3 ovarian
OVCAR-4 ovarian = tested on: OVCAR-4 ovarian
OVCAR-5 ovarian = tested on: OVCAR-5 ovarian
PC-3 prostate = tested on: PC-3 prostate
RPMI-8226 leukemia = tested on: RPMI-8226 leukemia
SF-268 CNS = tested on: SF-268 CNS
SF-295 CNS = tested on: SF-295 CNS
SK-MEL-2 melanoma = tested on: SK-MEL-2 melanoma
SK-MEL-28 melanoma = tested on: SK-MEL-28 melanoma
SK-MEL-5 melanoma = tested on: SK-MEL-5 melanoma
SK-OV-3 ovarian = tested on: SK-OV-3 ovarian
SN12C renal = tested on: SN12C renal
SNB-19 CNS = tested on: SNB-19 CNS
SNB-75 CNS = tested on: SNB-75 CNS
SR leukemia = tested on: SR leukemia
SW-620 colon = tested on: SW-620 colon
T-47D breast = tested on: T-47D breast
U251 CNS = tested on: U251 CNS
UACC-257 melanoma = tested on: UACC-257 melanoma
UACC-62 melanoma = tested on: UACC-62 melanoma
UO-31 renal = tested on: UO-31 renal
HCT-15 colon = tested on: HCT-15 colon
K-562 leukemia = tested on: K-562 leukemia
MCF7 breast = tested on: MCF7 breast
NCI/ADR-RES ovarian = tested on: NCI/ADR-RES ovarian
OVCAR-8 ovarian = tested on: OVCAR-8 ovarian
SF-539 CNS = tested on: SF-539 CNS
TK-10 renal = tested on: TK-10 renal

SMILES: NNC(=S)N1CCN(C(=S)NN)CC1
- TGI (786-0 renal): > 100 µM
- TGI (A498 renal): > 100 µM
- TGI (A549 NSCLC): > 100 µM
- TGI (ACHN renal): > 100 µM
- TGI (BT-549 breast): > 100 µM
- TGI (CAKI-1 renal): > 100 µM
- TGI (CCRF-CEM leukemia): > 100 µM
- TGI (COLO 205 colon): > 100 µM
- TGI (DU-145 prostate): > 100 µM
- TGI (EKVX NSCLC): > 100 µM
- TGI (HCC-2998 colon): > 100 µM
- TGI (HCT-116 colon): > 100 µM
- TGI (HL-60(TB) leukemia): > 100 µM
- TGI (HOP-62 NSCLC): > 100 µM
- TGI (HOP-92 NSCLC): > 100 µM
- TGI (HS 578T breast): > 100 µM
- TGI (HT29 colon): > 100 µM
- TGI (IGROV1 ovarian): > 100 µM
- TGI (KM12 colon): > 100 µM
- TGI (LOX IMVI melanoma): > 100 µM
- TGI (M14 melanoma): > 100 µM
- TGI (MALME-3M melanoma): > 100 µM
- TGI (MDA-MB-231 breast): > 100 µM
- TGI (MDA-MB-435): > 100 µM
- TGI (MDA-N): > 100 µM
- TGI (MOLT-4 leukemia): > 100 µM
- TGI (NCI-H23 lung): > 100 µM
- TGI (NCI-H460 lung): > 100 µM
- TGI (NCI-H522 lung): > 100 µM
- TGI (OVCAR-3 ovarian): > 100 µM
- TGI (OVCAR-4 ovarian): > 100 µM
- TGI (OVCAR-5 ovarian): > 100 µM
- TGI (PC-3 prostate): > 100 µM
- TGI (RPMI-8226 leukemia): > 100 µM
- TGI (SF-268 CNS): > 100 µM
- TGI (SF-295 CNS): > 100 µM
- TGI (SK-MEL-2 melanoma): > 100 µM
- TGI (SK-MEL-28 melanoma): > 100 µM
- TGI (SK-MEL-5 melanoma): > 100 µM
- TGI (SK-OV-3 ovarian): > 100 µM
- TGI (SN12C renal): > 100 µM
- TGI (SNB-19 CNS): > 100 µM
- TGI (SNB-75 CNS): > 100 µM
- TGI (SR leukemia): > 100 µM
- TGI (SW-620 colon): > 100 µM
- TGI (T-47D breast): > 100 µM
- TGI (U251 CNS): > 100 µM
- TGI (UACC-257 melanoma): > 100 µM
- TGI (UACC-62 melanoma): > 100 µM
- TGI (UO-31 renal): > 100 µM

SMILES: CC(C)(C)OC(=O)NC(Cc1ccccc1)C(=O)NC(Cc1ccccc1)C(=O)NCC(=O)OCc1ccccc1 (stereo not drawn) (Boc-Phe-Phe-Gly-OBn; configuration not given here)
- TGI (786-0 renal): 31.6 µM
- TGI (A498 renal): > 100 µM
- TGI (ACHN renal): > 100 µM
- TGI (CAKI-1 renal): > 100 µM
- TGI (CCRF-CEM leukemia): 43.1 µM
- TGI (COLO 205 colon): > 100 µM
- TGI (DU-145 prostate): 33.2 µM
- TGI (EKVX NSCLC): > 100 µM
- TGI (HCC-2998 colon): 29.8 µM
- TGI (HCT-116 colon): 40.2 µM
- TGI (HCT-15 colon): 64.7 µM
- TGI (HL-60(TB) leukemia): 57.6 µM
- TGI (HOP-62 NSCLC): 91.7 µM
- TGI (HOP-92 NSCLC): > 100 µM
- TGI (HT29 colon): 40.4 µM
- TGI (IGROV1 ovarian): 26.5 µM
- TGI (K-562 leukemia): 31.4 µM
- TGI (LOX IMVI melanoma): 24.5 µM
- TGI (M14 melanoma): 62.7 µM
- TGI (MALME-3M melanoma): > 100 µM
- TGI (MCF7 breast): > 100 µM
- TGI (MDA-MB-435): > 100 µM
- TGI (MDA-N): 53.3 µM
- TGI (MOLT-4 leukemia): 56 µM
- TGI (NCI-H23 lung): 80.7 µM
- TGI (NCI-H460 lung): 49.9 µM
- TGI (NCI-H522 lung): 48.8 µM
- TGI (NCI/ADR-RES ovarian): > 100 µM
- TGI (OVCAR-3 ovarian): 46.1 µM
- TGI (OVCAR-4 ovarian): > 100 µM
- TGI (OVCAR-5 ovarian): > 100 µM
- TGI (OVCAR-8 ovarian): > 100 µM
- TGI (PC-3 prostate): 35.8 µM
- TGI (RPMI-8226 leukemia): 39.6 µM
- TGI (SF-268 CNS): 29.4 µM
- TGI (SF-539 CNS): 44.1 µM
- TGI (SK-MEL-2 melanoma): > 100 µM
- TGI (SK-MEL-28 melanoma): 42.7 µM
- TGI (SK-OV-3 ovarian): 46 µM
- TGI (SN12C renal): 85.9 µM
- TGI (SNB-19 CNS): > 100 µM
- TGI (SNB-75 CNS): 59 µM
- TGI (SR leukemia): 44.6 µM
- TGI (SW-620 colon): 28.4 µM
- TGI (T-47D breast): > 100 µM
- TGI (TK-10 renal): 53.1 µM
- TGI (U251 CNS): 36.3 µM
- TGI (UACC-257 melanoma): > 100 µM
- TGI (UACC-62 melanoma): 38.7 µM
- TGI (UO-31 renal): > 100 µM
